Assay results published in US6242445A, “Benzimidazole derivative” (Kureha Chemical Industry Co., Ltd., priority 1998, dated 2001).

Columns and labels:
[1] = J. Clin. Pharmacol., 30: 155 to 158, 1990; cited from earlier work
[2] = target: T1, angiotensin II receptor subtype 1 (AT1) (Oryctolagus cuniculus, UniProt P34976); test: Binding assay, angiotensin II receptor subtype 1 (AT1); parameters: species or system rabbits; inhibition: dose or concentration left out as unconfirmed; details: 3 h
T1 construct: from adrenal glands in rabbits; from tissue; host or cells: adrenal glands of rabbits
T1 sequence (P34976 1-359): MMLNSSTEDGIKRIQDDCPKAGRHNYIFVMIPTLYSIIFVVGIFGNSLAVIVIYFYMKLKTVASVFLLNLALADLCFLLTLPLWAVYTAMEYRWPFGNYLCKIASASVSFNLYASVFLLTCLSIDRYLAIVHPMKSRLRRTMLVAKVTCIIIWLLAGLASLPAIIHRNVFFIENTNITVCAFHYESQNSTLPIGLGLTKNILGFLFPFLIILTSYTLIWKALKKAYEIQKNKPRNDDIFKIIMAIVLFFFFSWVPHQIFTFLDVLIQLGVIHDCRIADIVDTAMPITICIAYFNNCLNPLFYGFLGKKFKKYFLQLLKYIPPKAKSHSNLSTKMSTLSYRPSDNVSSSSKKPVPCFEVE
Method: (§1) In this Example, a binding assay was carried out. That is, the affinity to the angiotensin II receptor subtype 1 orsubtype 2 was evaluated in accordance with the method described in Biochem. Pharmacol., 33, 4057-4062 (1984).
(§2) Specifically, the measurement of the total binding in the presence of each drug was performed as follows:
(§3) A mixture (final volume=0.25 ml) of a drug in a given concentration (the drug was dissolved in DMSO, and diluted to a double volume with a buffer attached to a drug discovery system to prepare a sample for the assay; 0.025 ml), a tracer (0.025 ml), and receptors (0.2 ml) was incubated [in the case of the angiotensin II receptor subtype 1 (AT1), at room temperature for 3 hours, and in the case of the subtype 2 (AT2), at 37° C. for 1 hour]. Then, the reaction mixture was filtered with suction (a GF/C filter was used in AT1, and a GF/B filter was used in AT2). The filter papers after filtration with suction (the tracer bound to the receptors) were counted by a γ-well counter (ARC-500, Aloka). The non-specific bindings were measured by repeating the above method, except that a large excess amount of a displacer was added. The specific binding of the drug in the given concentration was calculated by subtracting the non-specific binding from the total binding, respectively.
tracer: ^3 H-angiotensin II

[3] = target: T2, angiotensin II receptor subtype 2 (AT2) (Bos taurus, UniProt G5E6F7); test: Binding assay, angiotensin II receptor subtype 2 (AT2); parameters: species or system bovine; dose or concentration left out as unconfirmed; details: 1 h; tracer 125I-Tyr4-angiotensin II
T2 construct: from cerebellar cortex in bovine; from tissue; host or cells: cerebellar cortex, bovine
T2 sequence (G5E6F7 1-362): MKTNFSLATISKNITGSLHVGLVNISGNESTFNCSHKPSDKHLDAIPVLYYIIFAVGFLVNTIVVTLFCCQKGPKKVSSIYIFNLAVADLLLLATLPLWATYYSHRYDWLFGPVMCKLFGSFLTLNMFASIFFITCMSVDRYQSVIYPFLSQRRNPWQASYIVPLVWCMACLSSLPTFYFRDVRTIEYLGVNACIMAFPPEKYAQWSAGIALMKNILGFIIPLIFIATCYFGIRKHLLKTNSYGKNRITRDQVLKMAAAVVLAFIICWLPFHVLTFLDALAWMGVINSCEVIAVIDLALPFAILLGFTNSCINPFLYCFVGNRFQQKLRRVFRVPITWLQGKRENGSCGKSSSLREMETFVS
Method: as §1, §2, §3
In AT1 and AT2, the percentages found to inhibit the bindings of radioactive ligands (tracer) to receptors by the drugs to be tested (IC50 value of concentration to show 50% inhibition, […]) were measured, using the drugs to be tested and control drugs in the given concentration.
receptor: from cerebellar cortex in bovine
tracer: ^125 I-Tyr^4 -angiotensin II
control drug: angiotensin II (human)
(displacer): angiotensin II (human)

ICR female mice = test: Acute toxicity (single oral administration); type: in vivo; details: 500 mg/kg single oral; deaths observed for 6 days
Method: Acute toxicity was evaluated in this Example. As a compound to be examined, 2-ethoxy-1-[[4'-(2"-N,N-dimethylamino-ethoxycarbonyl)phenyl]methyl]-1H-benzimidazole-6-carboxylic acid morpholide (Compound No. 13) prepared in Example 6 was used.
Five-week-old ICR female mice (5 mice per group) were bredfor acclimation for a week. Then, Compound No. 13 was dissolved or suspended in 0.5% methylcellulose aqueous solution, and orally administered to the mice in a single dosage (500 mg/kg). […] Further, as to Compound No. 55, Compound No. 57, Compound No. 59, and Compound No. 65 prepared in Examples 26, 28, 31, and 23, respectively, acute toxicity was also evaluated.

Structure (SMILES)	inhibition [2] [%]	inhibition [3] [%]	other results
C[C@H](CS)C(=O)N1CCC[C@H]1C(=O)O [Captopril]	–	–	Blood pressure [1]: the blood pressure is lowered; progress of the kidney diseases [1]: the progress of the kidney diseases is ameliorated
CCOc1nc2ccc(C(=O)N3CCOCC3)cc2n1Cc1ccc(C(=O)O)cc1 [Compound No. 1, 2-ethoxy-1-[(4'-carboxyphenyl)methyl]-1H-benzimidazole-6-carboxylic acid morpholide]	45	0	–
CCCOc1nc2ccc(C(=O)N3CCOCC3)cc2n1Cc1ccc(C(=O)O)cc1 [Compound No. 3, 2-n-propoxy-1-[(4'-carboxyphenyl)methyl]-1H-benzimidazole-6-carboxylic acid morpholide]	45	0	–
CCCCOc1nc2ccc(C(=O)N3CCOCC3)cc2n1Cc1ccc(C(=O)O)cc1 [Compound No. 4]	45	0	–
CCOc1nc2ccc(C(=O)N3CCCCC3)cc2n1Cc1ccc(C(=O)O)cc1 [Compound No. 5, 2-ethoxy-1-[(4'-carboxyphenyl)methyl]-1H-benzimidazole-6-carboxylic acid piperidinamide]	50	0	–
CCOc1nc2ccc(C(=O)N3CCCC3)cc2n1Cc1ccc(C(=O)O)cc1 [Compound No. 6, 2-ethoxy-1-[(4'-carboxyphenyl)methyl]-1H-benzimidazole-6-carboxylic acid pyrrolidinamide]	50	0	–
CCOc1nc2ccc(C(=O)N3CCCCC3)cc2n1Cc1ccc(C(=O)OCCN(C)C)cc1 [Compound No. 55, 2-ethoxy-1-[[4'-(2"-N,N-dimethylaminoethoxycarbonyl)phenyl]methyl]-1H-benzimidazole-6-carboxylic acid piperidinamide]	–	–	Number of deaths/number of survivals (ICR female mice): 0/5
CCOc1nc2ccc(C(=O)N3CCCCCC3)cc2n1Cc1ccc(C(=O)OCCN(C)C)cc1 [Compound No. 59, 2-ethoxy-1-[[4'-(2"-N,N-dimethylaminoethoxycarbonyl)phenyl]methyl]-1H-benzimidazole-6-carboxylic acid perhydroazepinamide]	–	–	Number of deaths/number of survivals (ICR female mice): 0/5
CCOc1nc2ccc(C(=O)N3CCCC3)cc2n1Cc1ccc(C(=O)OCCN(C)C)cc1 [Compound No. 65, 2-ethoxy-1-[[4'-[2"-(dimethylamino)-ethoxycarbonyl]phenyl]methyl]-1H-benzimidazole-6-carboxylic acid pyrrolidinamide]	–	–	Number of deaths/number of survivals (ICR female mice): 0/5
CCOC(=O)[C@H](CCc1ccccc1)N[C@@H](C)C(=O)N1CCC[C@H]1C(=O)O [Enalapril]	–	–	Blood pressure [1]: the blood pressure is lowered; progress of the kidney diseases [1]: the progress of the kidney diseases is ameliorated
CCOc1nc2ccc(C(=O)N3CCOCC3)cc2n1Cc1ccc(O)cc1 [compound 2]	0	0	–
